{
  "source": "patent US20090053154A1",
  "about": "“MIXTURES OF ETHYLHEXYL P-METHOXYCINNAMATE AND ETHYLHEXYL SALICYLATE” (SYMRISE GmbH & Co. KG, priority 2005, published 2009)",
  "key": {"[1]": {"conditions": "emulsion containing 5 wt. % of EHMC; cited from earlier work"}, "[2]": {"conditions": "cited from earlier work"}, "[3]": {"assay": "Specific extinction E 1%/1 cm of the UV filter", "assay_type": "physicochemical", "conditions": "EHS versus EHMC", "text": "2-Ethylhexyl p-methoxycinnamate (ethylhexyl p-methoxycinnamate, CAS no.: 5466-77-3; USAN: Octinoxate, Neo Heliopan® AV (Symrise trade mark); hereafter abbreviated to EHMC) is a liquid, oil-soluble UV-B filter with a specific extinction E 1%/1 cm at 308 nm of approx. 850 (cf. H&R Contact no. 51, January 1991, pages 3-8). 2-Ethylhexyl p-methoxycinnamate is also frequently abbreviated to octyl methoxycinnamate (OMC) in the literature.\n2-Ethylhexyl salicylate (CAS no.: 118-60-5; USAN: Octisalate, Neo Heliopan® OS (Symrise trade mark); hereafter abbreviated to EHS) is likewise a liquid, oil-soluble UV-B filter with a specific extinction E 1%/1 cm at 305 nm of approx. 180 (cf. H&R Contact no. 51, January 1991, pages 3-8). The specific extinction of EHS is lower than that of EHMC by a factor of about 5.\nThe specific extinction of UV filters is of primary importance as an index for assessing the efficacy in respect of the achievable light protection factor (LPF, hereafter also SPF (sun protection factor)). […] The light protection factor of a (light protection) formulation is a measure of the UV-B protection it can achieve. The absolute SPF values also depend within certain limits on the cosmetic base formulation used."}},
  "note": "Where two headings read alike, the source gives them in different places.",
  "data": [
    {"smiles": "CCCCC(CC)COC(=O)C=Cc1ccc(OC)cc1", "note": "(stereo not shown) [EHMC, 2-Ethylhexyl p-methoxycinnamate]", "values": [
      {"measurement": "SPF (in vitro measurement)", "setting": "[1]", "value": 10.1},
      {"measurement": "specific extinction E 1%/1 cm", "setting": "[2]; at 308 nm", "value": "approx. 850"}
    ]},
    {"smiles": "CCCCC(CC)COC(=O)c1ccccc1O", "note": "(stereo not shown) [EHS, 2-Ethylhexyl salicylate]", "values": [
      {"measurement": "specific extinction lower than that of EHMC by a factor", "setting": "[3]", "value": "about 5"},
      {"measurement": "specific extinction E 1%/1 cm", "setting": "[2]; at 305 nm", "value": "approx. 180"}
    ]}
  ]
}
